Data from PubChem BioAssay (NCI).
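Exposure lasted 48 hours, with cells grown in 96-well plates and compounds tested at five concentrations. Here, GI50 denotes the concentration required for 50% inhibition of growth. TGI: total growth inhibition.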

Tests used:
Assay in all cases: inhibition of tumour cell growth, NCI panel, 48 h
A549 NSCLC = test system: A549 NSCLC
IGROV1 ovarian = test system: IGROV1 ovarian
K-562 leukemia = test system: K-562 leukemia
LOX IMVI melanoma = test system: LOX IMVI melanoma
OVCAR-5 ovarian = test system: OVCAR-5 ovarian
OVCAR-8 ovarian = test system: OVCAR-8 ovarian
UACC-257 melanoma = test system: UACC-257 melanoma
MALME-3M melanoma = test system: MALME-3M melanoma
UO-31 renal = test system: UO-31 renal
T-47D breast = test system: T-47D breast

| Structure (SMILES) | GI50 (A549 NSCLC) [µM] | TGI (A549 NSCLC) [µM] | GI50 (IGROV1 ovarian) [µM] | TGI (IGROV1 ovarian) [µM] | GI50 (K-562 leukemia) [µM] | TGI (K-562 leukemia) [µM] | GI50 (LOX IMVI melanoma) [µM] | TGI (LOX IMVI melanoma) [µM] | GI50 (OVCAR-5 ovarian) [nM] | TGI (OVCAR-5 ovarian) [µM] | GI50 (OVCAR-8 ovarian) [µM] | TGI (OVCAR-8 ovarian) [µM] | GI50 (UACC-257 melanoma) [nM] | TGI (UACC-257 melanoma) [µM] | TGI (MALME-3M melanoma) [µM] | TGI (UO-31 renal) [µM] | TGI (T-47D breast) [µM] | GI50 (MALME-3M melanoma) [nM] | GI50 (UO-31 renal) [nM] | GI50 (T-47D breast) [µM] |
| --- | --- | --- | --- | --- | --- | --- | --- | --- | --- | --- | --- | --- | --- | --- | --- | --- | --- | --- | --- | --- |
| O=Cc1ccc(-c2ccc(-c3nc4ccccc4[nH]3)cc2)s1 | 40.4 | > 100 | 34.8 | > 100 | 17.7 | 53 | 21.8 | 64.6 | 37000 | > 100 | 26.2 | 87.5 | 45400 | > 100 |  |  |  |  |  |  |
| O=C(O)C1=C(C(=O)Nc2ccccc2)C2C=CC1C2 (centres undefined) |  | > 100 |  | > 100 |  | > 100 |  | > 100 |  | > 100 |  | > 100 |  | > 100 | > 100 | > 100 |  |  |  |  |
| C[C@H]1CC[C@H]([C@@H](C)[C@H]2[C@@H](O)C[C@H]3[C@@H]4CC[C@H]5C[C@@H](O)CC[C@]5(C)[C@H]4CC[C@]23C)NC1 |  | 51 |  | 35.4 |  |  |  | 50.6 |  | 49.4 |  | 32.2 |  | 35.7 | 33 | 30.9 | 30.8 |  |  |  |
| CN(C)c1ncnc2c1Cc1ccccc1C(=O)N2C |  | > 100 |  | > 100 |  | > 100 |  | > 100 |  | > 100 |  | > 100 |  | > 100 | > 100 | > 100 |  |  |  |  |
| O=C(Cc1nc2ccccc2s1)Nc1ccc(Cl)cc1 |  | > 100 |  | > 100 |  | > 100 |  | > 100 |  | > 100 |  | > 100 |  | > 100 | > 100 | > 100 |  |  |  |  |
| COc1cc2c3c(c4ccc(OC)c(OC)c4c2cc1OC)CN1CCC[C@@H]1C3 |  |  |  | 0.935 |  | > 100 |  | 0.384 |  | 17.1 |  | 0.264 |  | 17.7 | 0.509 | 0.291 |  |  |  |  |
| CCN(CC)CC.CCOc1ccc(NC(=O)N=C=[N-])cc1.[CH-]1CCCCC1.[CH-]1CCCCC1.[CH-]1CCCCC1.[Cl-].[Sn+4] | 0.0331 | 0.107 | 0.0342 | 0.115 | 0.0171 | 0.463 | 0.0157 | 0.0483 | 42.7 | 0.114 | 0.0424 | 0.123 | 38.9 | 0.12 | 0.119 | 0.0928 |  | 45.2 | 45.2 |  |
| COc1cccc(NC(=O)C(C)(C)C)c1C=O |  | > 100 |  | > 100 |  | > 100 |  | > 100 |  | > 100 |  | > 100 |  | > 100 | > 100 | 77.3 |  |  |  |  |
| COc1c2ccoc2cc2oc(=O)ccc12 |  | > 100 |  | > 100 |  | > 100 |  | > 100 |  | > 100 |  | > 100 |  | > 100 | > 100 |  | > 100 |  |  |  |
| O=Nc1ccc(O)c2ccccc12 | 2.14 | 4.79 | 1.51 | 3.29 |  |  | 0.668 | 2.28 | 2130 | 4.21 | 1.57 | 5 | 1630 | 3.23 | 3.62 | 3.37 |  | 1610 | 1360 |  |
| COc1cc(Br)c(CC2(C#N)c3ccccc3C3C(N2C(=O)c2ccccc2)C3(Cl)Cl)cc1OC (centres undefined) |  | > 65.5 |  | > 65.5 |  | > 65.5 |  | > 65.5 |  | > 65.5 |  | > 65.5 |  | > 65.5 | > 65.5 | > 65.5 |  |  |  |  |
| CCSC(SCC)c1cc2c(cc1Br)OCO2 |  | > 100 |  | > 100 |  | 32.7 |  | 38 |  | > 100 |  | > 100 |  |  |  | 85.3 |  |  |  |  |
| c1ccc(N=c2snc3scc(-c4ccccc4)n23)cc1 |  | > 100 |  | > 100 |  | > 100 |  | > 100 |  | > 100 |  | > 100 |  | > 100 | 98.6 | 81.4 |  |  |  |  |
| CC1=C(C(=O)Nc2ccccc2)C(c2ccc([N+](=O)[O-])cc2)C(C(=O)Nc2ccccc2)=C(C)N1 |  | > 100 |  | > 100 |  | 63.5 |  | 30.5 |  | > 100 |  | 35.8 |  | 53.8 | > 100 | > 100 |  |  |  |  |
| O=C(CSc1nc2ccccc2nc1-c1ccccc1)Nc1ccc(Cl)cc1 | 32 | > 100 | 46.4 | > 100 |  |  | 38.3 | > 100 | > 100000 | > 100 | 25.5 | > 100 | > 100000 | > 100 | 78 | > 100 | > 100 | 27200 | 55400 | 13 |
| O=C(NCCO)c1cc2c(cn1)[nH]c1ccccc12 |  | > 100 |  | > 100 |  | > 100 |  | > 100 |  | > 100 |  | > 100 |  | > 100 | 43.9 | > 100 |  |  |  |  |
| CCN(CC)CCCC(C)Nc1cc(-c2ccc(C(F)(F)F)cc2)c(C#N)c2nc3ccccc3n12 (centres undefined) | 3.44 | 10.9 |  |  |  |  |  |  | 2290 | 5.15 | 2.41 | 5.51 | 2080 | 3.75 | 3.54 | 2.87 | 5.45 | 1830 | 1410 | 2.23 |
| CCC(=O)C1(c2ccccc2)CCN(C)CC1 |  | > 100 |  | > 100 |  | > 100 |  |  |  | > 100 |  | > 100 |  | > 100 | > 100 | > 100 | > 100 |  |  |  |
| COc1c2c3ccccc3nc-2n(C)c2ccccc12 | 14.3 | > 100 | 24.3 | > 100 | 11.5 | > 100 | 4.73 | 26.3 | 8430 | > 100 | 25.7 | > 100 | 21900 | 55.6 |  | > 100 |  |  | 29100 |  |
| Cc1ccc(-n2c3nc(=O)n(C)c(=O)c-3nc3ccccc32)cc1 |  | 30.2 |  | 92.1 |  | 53.7 |  | 43.7 |  | 45.3 |  | 51.8 |  | 26.9 | 27.2 | > 100 |  |  |  |  |
